Measurements from patent US12565501B2, “Muscarinic acetylcholine M1 receptor antagonists” (Contineum Therapeutics, Inc., priority 2019, dated 2026).

molecular target: T1, human M1 receptor (Homo sapiens, UniProt P11229); assay: In vitro functional assay of muscarinic acetylcholine receptor activity (aequorin calcium flux, reversal of EC80 acetylcholine response); assay type: cell-based; details: CHO-K1 cells stably expressing human M1 receptor with aequorin; acetylcholine at EC80; calcium flux (luminescence); read-out: M1 IC50
T1 sequence (P11229 1-460): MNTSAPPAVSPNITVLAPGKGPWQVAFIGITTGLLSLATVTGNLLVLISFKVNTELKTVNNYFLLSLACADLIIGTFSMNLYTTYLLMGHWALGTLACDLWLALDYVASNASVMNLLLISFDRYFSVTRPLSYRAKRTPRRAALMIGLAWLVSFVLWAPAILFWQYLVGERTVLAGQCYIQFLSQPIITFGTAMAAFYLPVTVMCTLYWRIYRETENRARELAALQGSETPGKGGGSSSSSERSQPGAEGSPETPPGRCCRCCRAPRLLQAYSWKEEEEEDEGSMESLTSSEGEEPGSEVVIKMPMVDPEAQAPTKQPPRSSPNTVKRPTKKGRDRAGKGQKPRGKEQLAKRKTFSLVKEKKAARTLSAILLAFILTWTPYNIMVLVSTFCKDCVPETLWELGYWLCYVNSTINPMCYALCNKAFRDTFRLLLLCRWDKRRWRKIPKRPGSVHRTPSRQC
Method in brief: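 Antagonist mode: compound (final 0.1% DMSO) and coelenterazine-loaded M1/aequorin CHO-K1 cells incubated 30 min in the dark before EC80 acetylcholine addition. Calcium flash integrated as 40 s luminescence AUC; IC50 derived from dose-response curves.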

Structure (SMILES)	IC50
N#Cc1ccc(N2[C@@H]3CC[C@H]2CN(C(=O)CCNC(c2cccc4ncsc24)C(F)(F)F)C3)nc1 (mixture of isomers) [Example 52, 6-(3-(3-((1-(benzo[d]thiazol-7-yl)-2,2,2-trifluoroethyl)amino)propanoyl)-3,8-diazabicyclo[3.2.1]octan-8-yl)nicotinonitrile]	< 0.01 µM
N#Cc1ccc(N2C[C@@H]3C[C@H]2CN3C(=O)CNC2(c3ccc(F)cc3F)CC2)nc1 [Example 82, 6-((1S,4S)-5-((1-(2,4-difluorophenyl)cyclopropyl)glycyl)-2,5-diazabicyclo[2.2.1]heptan-2-yl)nicotinonitrile]	> 1 µM
N#Cc1ccc(N2C3CCC2CN(C(=O)COC2(c4cncc(OCC(F)(F)F)c4)CCC2)C3)nc1 [Example 314, 6-(3-(2-(1-(5-(2,2,2-trifluoroethoxy)pyridin-3-yl)cyclobutoxy)acetyl)-3,8-diazabicyclo[3.2.1]octan-8-yl)nicotinonitrile]	0.01 to 0.1 µM
N#Cc1ccc(N2C3CCC2CN(C(=O)COCC2(c4ccncc4)CC2)C3)nc1 [Example 189, 6-(3-(2-((1-(pyridin-4-yl)cyclopropyl)methoxy)acetyl)-3,8-diazabicyclo[3.2.1]octan-8-yl)nicotinonitrile]	1 to 10 µM
N#Cc1ccc(N2[C@@H]3C[C@H]2CN(C(=O)CCNC2(c4ccc(F)c(F)c4)CC2)C3)nc1 [Example 40, 6-(3-(3-((1-(3,4-difluorophenyl)cyclopropyl)amino)propanoyl)-3,6-diazabicyclo[3.1.1]heptan-6-yl)nicotinonitrile]	1 to 10 µM
N#Cc1ccc(N2C3CCC2CN(C(=O)COC2(c4ccccc4C#N)CC2)C3)nc1 [Example 294, 6-(3-(2-(1-(2-cyanophenyl)cyclopropoxy)acetyl)-3,8-diazabicyclo[3.2.1]octan-8-yl)nicotinonitrile]	0.1 to 1 µM
N#Cc1ccc(N2C3CCC2CN(C(=O)COC2(c4cccc(F)c4)CCC2)C3)nc1 [Example 235, 6-(3-(2-(1-(3-fluorophenyl)cyclobutoxy)acetyl)-3,8-diazabicyclo[3.2.1]octan-8-yl)nicotinonitrile]	0.01 to 0.1 µM
CC(c1ccccc1)[S+]([O-])CC(=O)N1CC2CCC(C1)N2c1ccc(C#N)cn1 (racemic) [Example 168, 6-(3-(2-((1-phenylethyl)sulfinyl)acetyl)-3,8-diazabicyclo[3.2.1]octan-8-yl)nicotinonitrile]	1 to 10 µM
COc1ccncc1C(F)(F)/C=C/C(=O)N1C[C@H]2CC[C@@H](C1)N2c1ccc(C#N)cn1 [Example 143, 6-(3-((E)-4,4-difluoro-4-(4-methoxypyridin-3-yl)but-2-enoyl)-3,8-diazabicyclo[3.2.1]octan-8-yl)nicotinonitrile]	< 0.01 µM
N#Cc1ccc(N2[C@@H]3COC[C@H]2CN(C(=O)CCNC2(c4ccc(F)c(F)c4)CC2)C3)nc1 [Example 39, 6-(7-(3-((1-(3,4-difluorophenyl)cyclopropyl)amino)propanoyl)-3-oxa-7,9-diazabicyclo[3.3.1]nonan-9-yl)nicotinonitrile]	0.1 to 1 µM
N#Cc1ccc(N2[C@@H]3CC[C@H]2CN(C(=O)CCNC2(c4ccc(F)c(F)c4)CC2)C3)cn1 [Example 46, 5-(3-(3-((1-(3,4-difluorophenyl)cyclopropyl)amino)propanoyl)-3,8-diazabicyclo[3.2.1]octan-8-yl)picolinonitrile]	< 0.01 µM
N#Cc1ccc(N2C3CCC2CN(C(=O)COC2CCc4cc(F)ccc42)C3)nc1 (racemic) [Example 184, 6-(3-(2-((5-fluoro-2,3-dihydro-1H-inden-1-yl)oxy)acetyl)-3,8-diazabicyclo[3.2.1]octan-8-yl)nicotinonitrile]	0.01 to 0.1 µM
N#Cc1ccc(N2C3CCC2CN(C(=O)COC2(c4cc(F)ccn4)CCC2)C3)nc1 [Example 248, 6-(3-(2-(1-(4-fluoropyridin-2-yl)cyclobutoxy)acetyl)-3,8-diazabicyclo[3.2.1]octan-8-yl)nicotinonitrile]	0.1 to 1 µM
N#Cc1ccc(N2C3CCC2CN(C(=O)COC2(c4cccc5nccnc45)CC2)C3)nc1 [Example 231, 6-(3-(2-(1-(quinoxalin-5-yl)cyclopropoxy)acetyl)-3,8-diazabicyclo[3.2.1]octan-8-yl)nicotinonitrile]	0.01 to 0.1 µM
N#Cc1ccc(N2[C@@H]3CC[C@H]2CN(C(=O)CCNC2(c4ccc(F)c(F)c4)CC2)C3)nn1 [Example 42, 6-(3-(3-((1-(3,4-difluorophenyl)cyclopropyl)amino)propanoyl)-3,8-diazabicyclo[3.2.1]octan-8-yl)pyridazine-3-carbonitrile]	< 0.01 µM
N#Cc1ccc(N2C[C@H]3CC[C@@H]2CN3C(=O)COC2(c3ccc(F)c(F)c3)CC2)nc1 [Example 286, 6-((1R,4R)-5-(2-(1-(3,4-difluorophenyl)cyclopropoxy)acetyl)-2,5-diazabicyclo[2.2.2]octan-2-yl)nicotinonitrile]	> 1 µM

Structure (SMILES)	IC50
N#Cc1ccc(N2[C@@H]3CC[C@H]2CN(C(=O)/C=C/C(F)(F)c2cccn4ncnc24)C3)nc1 [Example 146, 6-(3-((E)-4-([1,2,4]triazolo[1,5-a]pyridin-8-yl)-4,4-difluorobut-2-enoyl)-3,8-diazabicyclo[3.2.1]octan-8-yl)nicotinonitrile]	< 0.01 µM
N#Cc1ccc(N2C3CCC2CN(C(=O)COC2(c4cc(F)cc(Br)c4)CC2)C3)nc1 [Example 217, 6-(3-(2-(1-(3-bromo-5-fluorophenyl)cyclopropoxy)acetyl)-3,8-diazabicyclo[3.2.1]octan-8-yl)nicotinonitrile]	0.01 to 0.1 µM
N#Cc1ccc(N2C3CCC2CN(C(=O)COC2(c4ccncc4F)CCC2)C3)nc1 [Example 247, 6-(3-(2-(1-(3-fluoropyridin-4-yl)cyclobutoxy)acetyl)-3,8-diazabicyclo[3.2.1]octan-8-yl)nicotinonitrile]	< 0.01 µM
N#Cc1cnc(N2[C@@H]3CC[C@H]2CN(C(=O)CCNC2(c4ccc(F)c(F)c4)CC2)C3)cn1 [Example 45, 5-(3-(3-((1-(3,4-difluorophenyl)cyclopropyl)amino)propanoyl)-3,8-diazabicyclo[3.2.1]octan-8-yl)pyrazine-2-carbonitrile]	0.01 to 0.1 µM
N#Cc1ccc(N2C3CCC2CN(C(=O)COC2(c4cccc(Br)c4F)CC2)C3)nc1 [Example 219, 6-(3-(2-(1-(3-bromo-2-fluorophenyl)cyclopropoxy)acetyl)-3,8-diazabicyclo[3.2.1]octan-8-yl)nicotinonitrile]	0.01 to 0.1 µM
N#Cc1ccc(N2C3CCC2CN(C(=O)COC2(c4ccc(F)cc4Br)CC2)C3)nc1 [Example 221, 6-(3-(2-(1-(2-bromo-4-fluorophenyl)cyclopropoxy)acetyl)-3,8-diazabicyclo[3.2.1]octan-8-yl)nicotinonitrile]	0.01 to 0.1 µM
N#Cc1ccc(N2C3CCC2CN(C(=O)COC2(c4ccc(F)c(Br)c4)CC2)C3)nc1 [Example 215, 6-(3-(2-(1-(3-bromo-4-fluorophenyl)cyclopropoxy)acetyl)-3,8-diazabicyclo[3.2.1]octan-8-yl)nicotinonitrile]	0.01 to 0.1 µM
CC(OCCC(=O)N1CC2CCC(C1)N2c1ccc(C#N)cn1)c1cccc2nccnc12 (racemic) [Example 312, 6-(3-(3-(1-(quinoxalin-5-yl)ethoxy)propanoyl)-3,8-diazabicyclo[3.2.1]octan-8-yl)nicotinonitrile]	< 0.01 µM
COc1ccc(C2(OCC(=O)N3CC4CCC(C3)N4c3ccc(C#N)cn3)CCC2)cn1 [Example 257, 6-(3-(2-(1-(6-methoxypyridin-3-yl)cyclobutoxy)acetyl)-3,8-diazabicyclo[3.2.1]octan-8-yl)nicotinonitrile]	1 to 10 µM
N#Cc1ccc(N2C3CCC2CN(C(=O)CCN2CC(c4ccc(F)cc4)C2)C3)nc1 [Example 24]	> 1 µM
N#Cc1ccc(N2C3CCC2CN(C(=O)COC2(c4cc(F)ccc4C#N)CC2)C3)nc1 [Example 298, 6-(3-(2-(1-(2-cyano-5-fluorophenyl)cyclopropoxy)acetyl)-3,8-diazabicyclo[3.2.1]octan-8-yl)nicotinonitrile]	0.1 to 1 µM
COc1ccc(F)c(C2(NCC(=O)N3CC4CCC(C3)N4c3ccc(C#N)cn3)CCC2)c1 [Example 116, 6-(3-((1-(2-fluoro-5-methoxyphenyl)cyclobutyl)glycyl)-3,8-diazabicyclo[3.2.1]octan-8-yl)nicotinonitrile]	0.01 to 0.1 µM
N#Cc1ccc(N2C3CCC2CN(C(=O)CNC2(c4ccncc4)CC2)C3)nc1 [Example 102, 6-(3-((1-(pyridin-4-yl)cyclopropyl)glycyl)-3,8-diazabicyclo[3.2.1]octan-8-yl)nicotinonitrile]	0.1 to 1 µM
C[C@H](COCC(=O)N1CC2CCC(C1)N2c1ccc(C#N)cn1)c1ccccc1 [Example 186, 6-(3-(2-((S)-2-phenylpropoxy)acetyl)-3,8-diazabicyclo[3.2.1]octan-8-yl)nicotinonitrile]	1 to 10 µM
COc1cc(C2(NCC(=O)N3CC4CCC(C3)N4c3ccc(C#N)cn3)CC2)c(F)cn1 [Example 74, 6-(3-((1-(5-fluoro-2-methoxypyridin-4-yl)cyclopropyl)glycyl)-3,8-diazabicyclo[3.2.1]octan-8-yl)nicotinonitrile]	0.01 to 0.1 µM
N#Cc1ccc(N2C3CCC2CN(C(=O)COC2CCc4ccc(F)cc42)C3)nc1 (racemic) [Example 183, 6-(3-(2-((6-fluoro-2,3-dihydro-1H-inden-1-yl)oxy)acetyl)-3,8-diazabicyclo[3.2.1]octan-8-yl)nicotinonitrile]	0.01 to 0.1 µM
